Structures can show the parent of a compound that is named as a salt. One block for each compound: values may come before it.
Target: T1, protein farnesyltransferase (Rattus norvegicus, UniProt Q02293+Q04631)
T1 construct: The enzyme is purified according to Reiss, Y., et al., Cell, 62: 81-88 (1990), utilizing steps one through three; from tissue; host or cells: rat brain
Test: Inhibition of farnesyltransferase (scintillation proximity assay, rat brain enzyme, biotin-K Ras B fragment substrate)
Type: biochemical
Details: for inhibition at 1 µM: read-out: % inhibition of farnesyltransferase at 1 × 10^-6 M; for inhibition at 1 µM / % inhibition of farnesyltransferase at 1 × 10^-6 M: 1 × 10^-6 M (Table 2); for % inhibition of farnesyltransferase at 1 × 10^-7 M / inhibition at 0.1 µM: 1 × 10^-7 M (Table 3); for inhibition at 0.01 µM: read-out: % inhibition at 0.01 μM (**), Table 6, ** = 0.01 μM (footnote), title prints 0.01 mM; for inhibition at 0.1 µM: read-out: % inhibition of farnesyltransferase at 1 × 10^-7 M; for % inhibition of farnesyltransferase at 1 × 10^-8 M: 1 × 10^-8 M (Table 4); for % inhibition of farnesyltransferase at 1 × 10^-5 M: 1 × 10^-5 M (Table 1)
Outline: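 Enzyme from rat brain, partly purified (steps one to three), assayed by SPA kit using 0.1 mM final biotin-K Ras B peptide as prenyl acceptor rather than biotin-lamin. Activity given as percent inhibition.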

T1 sequence (Q02293 whole entry, one chain of several): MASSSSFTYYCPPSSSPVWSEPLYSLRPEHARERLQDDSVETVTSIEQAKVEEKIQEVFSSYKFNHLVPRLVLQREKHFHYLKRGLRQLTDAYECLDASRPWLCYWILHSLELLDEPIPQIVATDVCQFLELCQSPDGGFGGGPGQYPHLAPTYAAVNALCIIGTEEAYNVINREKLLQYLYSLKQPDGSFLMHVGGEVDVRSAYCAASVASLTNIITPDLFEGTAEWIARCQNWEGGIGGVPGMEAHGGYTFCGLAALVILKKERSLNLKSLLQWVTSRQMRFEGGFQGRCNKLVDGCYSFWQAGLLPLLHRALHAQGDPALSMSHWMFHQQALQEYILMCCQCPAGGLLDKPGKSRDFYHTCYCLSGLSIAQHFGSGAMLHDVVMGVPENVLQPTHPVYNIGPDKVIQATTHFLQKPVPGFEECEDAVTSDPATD

SMILES: CSCC[C@H](NC(=O)c1ccc(CN2CCC(OCc3ccccc3)C2)cc1-c1ccccc1C)C(=O)O (some centres unmarked) [Example 988, N-[4-(3-benzyloxypyrrolidin-1-ylmethyl)-2-(2-methylphenyl)benzoyl]methionine]
inhibition at 1 µM: 92%

SMILES: CSCC[C@H](NC(=O)c1ccc(OCCCOc2ccccc2)cc1-c1ccccc1C)C(=O)O [Example 566]
% inhibition of farnesyltransferase at 1 × 10^-6 M: 98%

SMILES: CSCC[C@H](NC(=O)c1ccc(COCc2ccccc2)cc1-c1ccccc1C)C(=O)[O-].[Li+] [Example 571]
% inhibition of farnesyltransferase at 1 × 10^-7 M: 88%

SMILES: CSCC[C@H](NC(=O)c1ccc(CNc2ccc(N3CCCCC3)cc2)cc1-c1ccccc1C)C(=O)O [Example 862]
% inhibition of farnesyltransferase at 1 × 10^-6 M: 95%

SMILES: CSCC[C@H](NC(=O)c1ccc(COCc2ccccc2)cc1-c1ccccc1)C(=O)O [Example 575]
% inhibition of farnesyltransferase at 1 × 10^-6 M: 70%

SMILES: CSCC[C@H](NC(=O)c1ccc(CN(CCC#N)Cc2ccccc2)cc1-c1ccccc1)C(=O)O [Example 649]
% inhibition of farnesyltransferase at 1 × 10^-6 M: 86%

SMILES: CSCC[C@H](NC(=O)c1ccc(COC2(c3ccccc3)CCN(C(=O)OC(C)(C)C)CC2)cc1-c1ccccc1C)C(=O)[O-].[Li+] [Example 816]
% inhibition of farnesyltransferase at 1 × 10^-6 M: 87%

SMILES: CSCC[C@H](NC(=O)c1ccc(CCc2ccccc2Oc2ccccc2)cc1-c1ccccc1C)C(=O)O [Example 455, N-[4-(2-(2-phenoxyphenyl)ethyl)-2-(2-methylphenyl)benzoyl]methionine lithium salt]
inhibition at 0.1 µM: 83%

SMILES: CSCC[C@H](NC(=O)c1ccc(CN(C)C(C)(C)Cc2ccccc2)cc1-c1ccccc1C)C(=O)O [Example 982]
% inhibition of farnesyltransferase at 1 × 10^-6 M: 64%

SMILES: CSCC[C@H](NC(=O)c1ccc(CN(Cc2ccccc2)c2ccccc2Cl)cc1-c1ccccc1C)C(=O)O [Example 846]
% inhibition of farnesyltransferase at 1 × 10^-6 M: 85%

SMILES: CSCC[C@H](NC(=O)c1ccc(COCCc2ccc(Cl)cc2Cl)cc1-c1ccccc1C)C(=O)[O-].[Li+] [Example 591]
% inhibition of farnesyltransferase at 1 × 10^-8 M: 82%

SMILES: CSCC[C@H](NC(=O)c1ccc(COC2CCN(C(=O)OC(C)(C)C)CC2)cc1-c1ccccc1C)C(=O)[O-].[Li+] [Example 808]
% inhibition of farnesyltransferase at 1 × 10^-6 M: 88%

SMILES: CCCC(CCC)NOCc1ccc(C(=O)N[C@@H](CCSC)C(=O)O)c(-c2ccccc2C)c1 [Example 929, N-[4-(N-Hept-4-ylaminooxymethyl)-2-(2-methylphenyl)benzoyl]methionine]
inhibition at 0.1 µM: 81%

SMILES: CSCC[C@H](NC(=O)c1ccc(CN[C@@H](CC2CCCCC2)C(=O)N2CCCCC2)cc1-c1ccccc1C)C(=O)O [Example 887]
% inhibition of farnesyltransferase at 1 × 10^-8 M: 92%

SMILES: CSCC[C@H](NC(=O)c1ccc(CC(Cc2ccccc2)c2ccccc2)cc1-c1ccccc1C)C(=O)O (some centres unmarked) [Example 572, N-[4-(2,3-diphenylpropan-1-yl)-2-(2-methylphenyl)benzoyl]methionine lithium salt]
inhibition at 1 µM: 91%

SMILES: CSCC[C@H](NC(=O)c1ccc(OC/C=C(\C)CC/C=C(\C)CCC=C(C)C)cc1-c1ccccc1C)C(=O)O [Example 547]
% inhibition of farnesyltransferase at 1 × 10^-6 M: 91%

SMILES: CCOC[C@H](CC1CCCCC1)OCc1ccc(C(=O)N[C@@H](CCSC)C(=O)O)c(-c2ccccc2C)c1 [Example 525]
% inhibition of farnesyltransferase at 1 × 10^-6 M: 99%

SMILES: CSCC[C@H](NC(=O)c1ccc(CN2C(=O)OC[C@@H]2CC2CCCCC2)cc1-c1ccccc1C)C(=O)O [Example 349, [4-(5-cyclohexylmethyloxazolid-2-on-1-ylmethyl)-2-(2-methylphenyl)benzoyl]methionine]
inhibition at 1 µM: 99%

SMILES: COc1ccc(N(Cc2ccccc2)Cc2ccc(C(=O)N[C@@H](CCSC)C(=O)O)c(-c3ccccc3C)c2)cc1 [Example 840]
% inhibition of farnesyltransferase at 1 × 10^-8 M: 73%

SMILES: CCCCC(OCc1ccc(C(=O)N[C@@H](CCSC)C(=O)O)c(-c2ccccc2C)c1)c1cncs1 (some centres unmarked) [Example 985]
% inhibition of farnesyltransferase at 1 × 10^-8 M: 89%

SMILES: CSCC[C@H](NC(=O)c1ccc(CNCC(O)c2cccc(O)c2)cc1-c1ccccc1)C(=O)O (some centres unmarked) [Example 661]
% inhibition of farnesyltransferase at 1 × 10^-6 M: 45%

SMILES: CSCC[C@H](NC(=O)c1ccc(CNCC(=O)N(Cc2ccccc2)Cc2ccccc2)cc1-c1ccccc1C)C(=O)O [Example 914]
% inhibition of farnesyltransferase at 1 × 10^-7 M: 91%

SMILES: CSCC[C@H](NC(=O)c1ccc(CSc2nc3cc(C)ccc3[nH]2)cc1-c1ccccc1C)C(=O)O [Example 733]
% inhibition of farnesyltransferase at 1 × 10^-7 M: 60%

Continued, values first:

inhibition at 1 µM: 98%
SMILES: CSCC[C@H](NC(=O)c1ccc(CN(C)C(C)(C)Cc2ccccc2)cc1-c1ccccc1C)C(=O)O [Example 309]

% inhibition of farnesyltransferase at 1 × 10^-7 M: 89%
SMILES: CSCC[C@H](NC(=O)c1ccc(CN[C@@H](CO)CC2CCCCC2)cc1-c1ccccc1C)C(=O)O [Example 618]

% inhibition of farnesyltransferase at 1 × 10^-7 M: 97%
SMILES: CSCC[C@H](NC(=O)c1ccc(COCc2ccc(-c3ccc(Cl)cc3)o2)cc1-c1ccccc1C)C(=O)O [Example 443]

inhibition at 0.01 µM: 84%
SMILES: CSCC[C@H](NC(=O)c1ccc(CN2CCC[C@@H]2COCC2CCCCC2)cc1-c1ccccc1C)C(=O)O [Example 1119, N-[4-(2-cyclohexylmethoxymethylpyrrolidin-1-ylmethyl)-2-(2-methylphenyl)benzoyl]methionine]

% inhibition of farnesyltransferase at 1 × 10^-7 M: 85%
SMILES: CCCCN(CCCC)C(=O)CNCc1ccc(C(=O)N[C@@H](CCSC)C(=O)O)c(-c2ccccc2C)c1 [Example 912]

inhibition at 0.01 µM: 74%
SMILES: CSCC[C@H](NC(=O)c1ccc(CN2CCOC[C@@H]2COCC2CCCCC2)cc1-c1ccccc1C)C(=O)O [Example 1109, N-[4-(3(S)-cyclohexylmethoxymethylmorpholin-4-ylmethyl)-2-(2-methylphenyl)benzoyl]methionine]

% inhibition of farnesyltransferase at 1 × 10^-8 M: 95%
SMILES: C=C[C@H](CC1CCCCC1)NCc1ccc(C(=O)N[C@@H](CCSC)C(=O)O)c(-c2ccccc2C)c1 [Example 619]

% inhibition of farnesyltransferase at 1 × 10^-5 M: 86%
SMILES: CSCC[C@H](NC(=O)c1ccc(CNc2cc[nH]n2)cc1-c1ccccc1)C(=O)O [Example 370]

inhibition at 1 µM: 94%
SMILES: CSCC[C@H](NC(=O)c1ccc(/C=C/c2cnc(Oc3ccccc3)cn2)cc1-c1ccccc1C)C(=O)O [Example 812, lithium salt]

% inhibition of farnesyltransferase at 1 × 10^-5 M: 76%
SMILES: CSCC[C@H](NC(=O)c1ccc(CNc2ccc3ncccc3c2)cc1-c1ccccc1)C(=O)O [Example 708]

% inhibition of farnesyltransferase at 1 × 10^-5 M: 40%
SMILES: CSCC[C@H](NC(=O)c1ccc(CNCCCCc2ccccc2)cc1-c1ccccc1)C(=O)O [Example 718]

% inhibition of farnesyltransferase at 1 × 10^-7 M: 97%
SMILES: CSCC[C@H](NC(=O)c1ccc(CN[C@H](CCCC(C)C)CC2CCCCC2)cc1-c1ccccc1C)C(=O)O [Example 527]

% inhibition of farnesyltransferase at 1 × 10^-7 M: 68%
SMILES: CSCC[C@H](NC(=O)c1ccc(CSc2ncnc3[nH]cnc23)cc1-c1ccccc1C)C(=O)O [Example 747]

% inhibition of farnesyltransferase at 1 × 10^-6 M: 55%
SMILES: CSCC[C@H](NC(=O)c1ccc(CN(Cc2ccccc2)Cc2ccccc2)cc1-c1ccccc1)C(=O)O [Example 834]

% inhibition of farnesyltransferase at 1 × 10^-6 M: 94%
SMILES: CSCC[C@H](NC(=O)c1ccc(Sc2ccc3ccccc3c2)cc1-c1ccccc1C)C(=O)O [Example 497]

Source: US6221865A, “Inhibitors of protein isoprenyl transferases” (priority 1998, dated 2001)
